We go through one compound from paper doi:10.64898/2025.12.10.692519v1 (biorxiv, 2025).

Molecules are shown by their SMILES.

The target of one assay is ALDH1A1 (Homo sapiens, UniProt P00352). As to the kind of experiment: NADH fluorescence dehydrogenase assay. It counts as biochemical.
For another assay, the system named is TG-LAM-134-P0. Description: cells. Conditions: 48 h, read-out: IC50 (µM) / AB8939. Set-up: species or system primary AML patient blasts.
For another assay, the system named is TG-LAM-135-P0. Description: cells. Conditions: 48 h, read-out: IC50 (µM) / AB8939. Set-up: species or system primary AML patient blasts.
For another assay, the system named is TG-LAM-136-P0. Description: cells. As to conditions: 48 h, read-out: IC50 (µM) / AB8939. Set-up: species or system primary AML patient blasts.
In another assay the test system is TG-LAM-138-P0. As to the kind of experiment: cells. On the set-up: species or system primary AML patient blasts. As to conditions: 48 h, read-out: IC50 (µM) / AB8939.
For another assay, the system named is TG-LAM-139-P0. Description: cells. Set-up: species or system primary AML patient blasts. Conditions: 48 h, read-out: IC50 (µM) / AB8939.
Another assay has as its system TG-LAM-140-P0. As to the kind of experiment: cells. Conditions: 48 h, read-out: IC50 (µM) / AB8939. Set-up: species or system primary AML patient blasts.
Another assay deals with TG-LAM-141-P0. Description: cells. Set-up: species or system primary AML patient blasts. Conditions: 48 h, read-out: IC50 (µM) / AB8939.
The test system of a further assay is TG-LAM-142-P0. As to the kind of experiment: cells. As to conditions: 48 h, read-out: IC50 (µM) / AB8939. Set-up: species or system primary AML patient blasts.
Another assay deals with TG-LAM-143-P0. Description: cells. As to conditions: 48 h, read-out: IC50 (µM) / AB8939. On the set-up: species or system primary AML patient blasts.
The subject of another assay is TG-LAM-144-P0. As to the kind of experiment: cells. Conditions: 48 h, read-out: IC50 (µM) / AB8939. Set-up: species or system primary AML patient blasts.
Another assay deals with TG-LAM-145-P0. Description: cells. As to conditions: 48 h, read-out: IC50 (µM) / AB8939. Set-up: species or system primary AML patient blasts.
The subject of the next assay is TG-LAM-75-P3. As to the kind of experiment: cells. Conditions: 48 h, read-out: IC50 (µM) / AB8939. Set-up: species or system primary AML patient blasts.
The next assay deals with TG-LAM-76-P3. As to the kind of experiment: cells. Conditions: 48 h, read-out: IC50 (µM) / AB8939. On the set-up: species or system primary AML patient blasts.
A further assay concerns TG-LAM-77-P0. Description: cells. On the set-up: species or system primary AML patient blasts. Conditions: 48 h, read-out: IC50 (µM) / AB8939.
In another assay the test system is PC-3. Description: cells. As to conditions: Homo sapiens, PC-3, 144 h, read-out: AB8939.
The next assay relates to MESSA. As to the kind of experiment: cells. On the set-up: species or system MES-SA/Mx2. As to conditions: Homo sapiens, MES-SA, read-out: MES-SA.
A further assay has as its system CHRF. As to the kind of experiment: cells. Set-up: species or system CMK. As to conditions: 72 h, read-out: AB8939 (IC50 nM).
The next assay deals with CMK. Description: cells. On the set-up: species or system CHRF. Conditions: Homo sapiens, 72 h, read-out: AB8939 (IC50 nM).

Sequence of ALDH1A1 (P00352 2-501): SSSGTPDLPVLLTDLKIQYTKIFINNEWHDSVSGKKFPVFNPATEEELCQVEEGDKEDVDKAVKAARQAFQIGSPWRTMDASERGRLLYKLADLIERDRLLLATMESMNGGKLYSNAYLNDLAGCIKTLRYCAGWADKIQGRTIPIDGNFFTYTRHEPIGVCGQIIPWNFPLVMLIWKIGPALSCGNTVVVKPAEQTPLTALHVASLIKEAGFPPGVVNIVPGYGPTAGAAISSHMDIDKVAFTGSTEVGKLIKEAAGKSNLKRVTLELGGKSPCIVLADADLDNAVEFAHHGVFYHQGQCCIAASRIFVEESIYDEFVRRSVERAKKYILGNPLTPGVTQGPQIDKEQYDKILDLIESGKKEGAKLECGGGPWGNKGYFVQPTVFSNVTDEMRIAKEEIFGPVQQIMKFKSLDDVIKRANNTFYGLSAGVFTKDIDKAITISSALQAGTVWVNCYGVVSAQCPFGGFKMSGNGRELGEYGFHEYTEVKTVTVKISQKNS

As to `CCOCc1ccc(C)c(Nc2ncc(-c3ccc(N4CCNC4=O)cc3)o2)c1` [AB8939], the IC50 against ALDH1A1 is 0.61 µM; in the assay with TG-LAM-134-P0 it was 0.08 µM; in the assay on TG-LAM-135-P0 it was above 5 µM; in the assay on TG-LAM-136-P0, 0.04 µM; in the assay on TG-LAM-138-P0, above 5 µM; with TG-LAM-139-P0 it was 0.94 µM. Besides, the IC50 is 0.06 µM in the assay with TG-LAM-140-P0; 0.12 µM in the assay with TG-LAM-141-P0; above 5 µM with TG-LAM-142-P0; 0.36 µM in the assay on TG-LAM-143-P0; 0.38 µM with TG-LAM-144-P0; 1.8 µM in the assay on TG-LAM-145-P0. For the same compound, the IC50 was 0.05 µM with TG-LAM-75-P3; 0.013 µM with TG-LAM-76-P3; above 5 µM in the assay on TG-LAM-77-P0; 0.008 µM in the assay with PC-3; 0.0057 ± 0.005 µM with MESSA; 9.7 nM in the assay on CHRF. For the same compound, in the assay on CMK, the IC50 was determined as 5.68 nM.
